Laboratory results: patent publication US6291432A (Japan Energy Corporation, priority 1996, dated 2001)
pKi: −log10 of the molar value. Like-named read-outs stand apart in the source and are kept apart here. Blank lines part the entries; values can stand above or below the molecule they belong to.

Columns and labels:
[1] = target: T1, recombinant HIV-1 protease (Human immunodeficiency virus type 1 group M subtype B, UniProt P04585); assay: HIV protease inhibition activity (enzyme activity inhibition rate); type: biochemical; details: for inhibition at 0.05 µM: read-out: Enzyme activity inhibition rate (%) (addition concentration of 50 nM)
T1 construct: measured using a recombinant HIV-1 protease
Method: The protease activity was measured using a recombinant HIV-1 protease (see Biochemistry, 250 (9)-264 (1990)) and a synthesized peptide substrate. The inhibition rate was calculated by determining a peptide fragment generated by cleavage between Tyr-Pro of the synthesized substrate after the reaction of 60 min at 37° C. using a reversed phase HPLC in the presence of the test compounds in various concentrations (see, for example, Japanese Patent Application Laid-open No. 170722/1993).
Examples of the evaluation results of the HIV protease inhibition activity of the tripeptide compound of the present invention by the above-described method is shown in Table 1. […] The concentration of the test compounds in Table 1 represents the final concentration in the reaction mixture.

[2] = target: T1, recombinant HIV-1 protease; assay: Evaluation of enzyme inhibition constant Ki; type: biochemical
Method: The synthesized peptide substrate having a sequence of H-Lys-Ala-Arg-Val-Tyr-Phe (4-NO2)-Glu-Ala-Nle-NH2 (SEQ ID NO. 1) was used in this experiment. The enzyme reaction was measured using a reversed phase HPLC by determining the C-terminal peptide fraction produced by cleavage just behind Tyr in the synthesized substrate which is obtained by reacting the following composition for 15 min. at 37° C. and stopping the reaction by the addition of 1N HCl (75 μl).
Composition of reaction mixture
Recombinant HIV-1 protease enzyme solution 10 μl
0.5 mM synthetic substrate aqueous solution 10 μl
DMSO Inhibitor solution 5 μl
0.2 M MES solution 25 μl
(1 M NaCl, 2 mM EDTA-2Na, 2 mM DTT, pH 5.5)
Column: Waters Nova-pak C18 (3.9×75 mm)
Eluent: A; water (0.1% TFA)
B; acetonitrile (0.1% TFA)
Flow rate: 2 ml/min isocratic; 10% B solution
Detection: Fluorescence 305 nm, excitation 275 nm

[3] = 50 nM final concentration of test compound, 60 min at 37° C.

SMILES: CC[C@H](NC(=O)OC)C(=O)N[C@@H](Cc1ccccc1)[C@H](O)C(=O)N1CSC(C)(C)[C@H]1C(=O)NCc1ccccc1C [Example 28, (R)-N-(2-methylbenzyl)-3-{(2S,3S)-2-hydroxy-3-[(S)-2-(methoxycarbonyl)aminobutanoyl]amino-4-phenylbutanoyl}-5,5-dimethyl-1,3-thiazolidine-4-carboxamide]
inhibition at 0.05 µM [1, 3]: 93.6%
pKi [2]: 9.62

SMILES: Cc1ccccc1CNC(=O)[C@H]1N(C(=O)[C@@H](O)[C@H](Cc2ccccc2)NC(=O)[C@H](CC(N)=O)NC(=O)c2cc(=O)c3ccccc3o2)CSC1(C)C [Example 6, (R)-N-(2-methylbenzyl)-3-{(2S,3S)-3-[N-(2-chromonecarbonyl)-L-asparaginyl]amino-2-hydroxy-4-phenylbutanoyl}-5,5-dimethyl-1,3-thiazolidine-4-carboxamide]
Enzyme activity inhibition rate (%) (addition concentration of 50 nM) [1, 3]: 98.4%
pKi ([2]; reversible tight-binding inhibitor model, test compound 1-100 nM, 15 min at 37° C., pH 5.5, read-out: Enzyme inhibition constant Ki): 11.77

SMILES: Cc1ccccc1CNC(=O)[C@H]1N(C(=O)[C@@H](O)[C@H](Cc2ccccc2)NC(=O)[C@H](CC(N)=O)NC(=O)OCc2ccccc2)CSC1(C)C [Example 3, (R)-N-(2-methylbenzyl)-3-{(2S,3S)-3-[N-(benzyloxycarbonyl)-L-asparaginyl]amino-2-hydroxy-4-phenylbutanoyl}-5,5-dimethyl-1,3-thiazolidine-4-carboxamide]
inhibition at 0.05 µM [1, 3]: 100%
pKi [2]: 10.80

SMILES: Cc1ccccc1CNC(=O)[C@H]1N(C(=O)[C@@H](O)[C@H](Cc2ccccc2)NC(=O)[C@H](CC(N)=O)NC(=O)c2cc3ccccc3o2)CSC1(C)C [Example 7, (R)-N-(2-methylbenzyl)-3-{(2S,3S)-3-[N-(2-benzofurancarbonyl)-L-asparaginyl]amino-2-hydroxy-4-phenylbutanoyl}-5,5-dimethyl-1,3-thiazolidine-4-carboxamide]
inhibition at 0.05 µM [1, 3]: 91.2%
pKi [2]: 11.32

SMILES: CC1(C)SCN(C(=O)[C@@H](O)[C@H](Cc2ccccc2)NC(=O)[C@H](CC(N)=O)NC(=O)OCc2ccccc2)[C@@H]1C(=O)NCc1ccccc1 [Example 1, (R)-N-benzyl-3-{(2S,3S)-3-[N-(benzyloxycarbonyl)-L-asparaginyl]amino-2-hydroxy-4-phenylbutanoyl}-5,5-dimethyl-1,3-thiazolidine-4-carboxamide]
inhibition at 0.05 µM [1, 3]: 96%
pKi [2]: 10.72

pKi [2]: 9.67
SMILES: CC(C)(C)NC(=O)[C@H]1N(C(=O)[C@@H](O)[C@H](Cc2ccccc2)NC(=O)[C@H](CC(N)=O)NC(=O)OCc2ccccc2)CSC1(C)C [reference compound]

SMILES: CCOC(=O)N[C@H](C(=O)N[C@@H](Cc1ccccc1)[C@H](O)C(=O)N1CSC(C)(C)[C@H]1C(=O)NCc1ccccc1C)C(C)C [Example 29, (R)-N-(2-methylbenzyl)-3-{(2S,3S)-2-hydroxy-3-[(S)-2-(ethoxycarbonyl)amino-3-methylbutanoyl]amino-4-phenylbutanoyl}-5,5-dimethyl-1,3-thiazolidine-4-ca rboxamide]
inhibition at 0.05 µM [1, 3]: 93%

SMILES: Cc1ccccc1CNC(=O)[C@H]1N(C(=O)[C@@H](O)[C@H](Cc2ccccc2)NC(=O)[C@@H](NC(=O)c2cnc3ccccc3n2)C(C)C)CSC1(C)C [Example 19, (R)-N-(2-methylbenzyl)-3-{(2S,3S)-3-[N-(2-quinoxalinecarbonyl)-L-valyl]amino-2-hydroxy-4-phenylbutanoyl}-5,5-dimethyl-1,3-thiazolidine-4-carboxamide]
inhibition at 0.05 µM [1, 3]: 97.3%

SMILES: Cc1ccccc1CNC(=O)[C@H]1N(C(=O)[C@@H](O)[C@H](Cc2ccccc2)NC(=O)[C@@H](NC(=O)c2cc(=O)c3ccccc3o2)C(C)C)CSC1(C)C [Example 12, (R)-N-(2-methylbenzyl)-3-{(2S,3S)-3-[N-(2-chromonecarbonyl)-L-valyl]amino-2-hydroxy-4-phenylbutanoyl}-5,5-dimethyl-1,3-thiazolidine-4-carboxamide]
Enzyme activity inhibition rate (%) (addition concentration of 50 nM) [1, 3]: 97.4%

SMILES: CC1(C)SCN(C(=O)[C@@H](O)[C@H](Cc2ccccc2)NC(=O)[C@H](CC(N)=O)NC(=O)OCc2ccccc2)[C@@H]1C(=O)NCc1ccccc1Cl [Example 5, (R)-N-(2-chlorobenzyl)-3-{(2S,3S)-3-[N-(benzyloxycarbonyl)-L-asparaginyl]amino-2-hydroxy-4-phenylbutanoyl}-5,5-dimethyl-1,3-thiazolidine-4-carboxamide]
inhibition at 0.05 µM [1, 3]: 98.4%

SMILES: CCOCC(=O)N[C@H](C(=O)N[C@@H](Cc1ccccc1)[C@H](O)C(=O)N1CSC(C)(C)[C@H]1C(=O)NCc1ccccc1C)C(C)C [Example 32, (R)-N-(2-methylbenzyl)-3-{(2S,3S)-2-hydroxy-3-[(S)-2-(ethoxyacetyl)amino-3-methylbutanoyl]amino-4-phenylbutanoyl}-5,5-dimethyl-1,3-thiazolidine-4-carb oxamide]
inhibition at 0.05 µM [1]: 96.4%

SMILES: Cc1ccccc1CNC(=O)[C@H]1N(C(=O)[C@@H](O)[C@H](Cc2ccccc2)NC(=O)[C@@H](NC(=O)c2cnc3ccccc3c2)C(C)C)CSC1(C)C [Example 21, (R)-N-(2-methylbenzyl)-3-{(2S,3S)-2-hydroxy-3-[(S)-2-(3-quinolinecarbonyl)amino-3-methylbutanoyl]amino-4-phenylbutanoyl}-5,5-dimethyl-1,3-thiazolidine-4-carboxamide]
inhibition at 0.05 µM [1, 3]: 97.7%

SMILES: Cc1ccccc1CNC(=O)[C@H]1N(C(=O)[C@@H](O)[C@H](Cc2ccccc2)NC(=O)[C@@H](NC(=O)c2nc3ccccc3[nH]2)C(C)C)CSC1(C)C [Example 15, (R)-N-(2-methylbenzyl)-3-{(2S,3S)-3-[N-(2-benzimidazolecarbonyl)-L-valyl]amino-2-hydroxy-4-phenylbutanoyl}-5,5-dimethyl-1,3-thiazolidine-4-carboxamide]
inhibition at 0.05 µM [1, 3]: 92.8%

SMILES: Cc1ccccc1CNC(=O)[C@H]1N(C(=O)[C@@H](O)[C@H](Cc2ccccc2)NC(=O)[C@@H](NC(=O)c2cc3ccccc3o2)C(C)C)CSC1(C)C [Example 11, (R)-N-(2-methylbenzyl)-3-{(2S,3S)-3-[N-(2-benzofurancarbonyl)-L-valyl]amino-2-hydroxy-4-phenylbutanoyl}-5,5-dimethyl-1,3-thiazolidine-4-carboxamide]
inhibition at 0.05 µM [1, 3]: 97.1%

SMILES: Cc1ccccc1CNC(=O)[C@@H]1CSCN1C(=O)[C@@H](O)[C@H](Cc1ccccc1)NC(=O)[C@H](CC(N)=O)NC(=O)OCc1ccccc1 [Example 2, (R)-N-(2-methylbenzyl)-3-{(2S,3S)-3-[N-(benzyloxycarbonyl)-L-asparaginyl]amino-2-hydroxy-4-phenylbutanoyl}-1,3-thiazolidine-4-carboxamide]
inhibition at 0.05 µM [1, 3]: 71.7%

SMILES: Cc1ccccc1CNC(=O)[C@H]1N(C(=O)[C@@H](O)[C@H](Cc2ccccc2)NC(=O)[C@@H](NC(=O)COc2cccc(N(C)C)c2)C(C)C)CSC1(C)C [Example 22, (R)-N-(2-methylbenzyl)-3-{(2S,3S)-2-hydroxy-3-[(S)-2-(3-dimethylaminophenoxyacetyl)amino-3-methylbutanoyl]amino-4-phenylbutanoyl}-5,5-dimethyl-1,3-thi azolidine-4-carboxamide]
inhibition at 0.05 µM [1, 3]: 97.6%

SMILES: Cc1ccccc1CNC(=O)[C@H]1N(C(=O)[C@@H](O)[C@H](Cc2ccccc2)NC(=O)[C@H](C)NC(=O)COc2cccc(N(C)C)c2)CSC1(C)C [Example 26, (R)-N-(2-methylbenzyl)-3-{(2S,3S)-2-hydroxy-3-[(S)-2-(3-dimethylaminophenoxyacetyl)aminopropanoyl]amino-4-phenylbutanoyl}-5,5-dimethyl-1,3-thiazolidine-4-carboxamide]
inhibition at 0.05 µM [1, 3]: 99.9%

SMILES: COCCOC(=O)N[C@H](C(=O)N[C@@H](Cc1ccccc1)[C@H](O)C(=O)N1CSC(C)(C)[C@H]1C(=O)NCc1ccccc1C)C(C)C [Example 30, (R)-N-(2-methylbenzyl)-3-{(2S,3S)-2-hydroxy-3-[(S)-2-(methoxyethoxycarbonyl)amino-3-methylbutanoyl]amino-4-phenylbutanoyl}-5,5-dimethyl-1,3-thiazolidine-4-carboxamide]
inhibition at 0.05 µM [1, 3]: 94.2%

SMILES: COC(=O)N[C@H](C(=O)N[C@@H](Cc1ccccc1)[C@H](O)C(=O)N1CSC(C)(C)[C@H]1C(=O)NCc1ccccc1C)[C@@H](C)O [Example 39, (R)-N-(2-methylbenzyl)-3-{(2S,3S)-2-hydroxy-3-[N-(methoxycarbonyl)-L-threonyl]amino-4-phenylbutanoyl}-5,5-dimethyl-1,3-thiazolidine-4-carboxamide]
inhibition at 0.05 µM [1, 3]: 84.6%
